The record followed here is ChEMBL document CHEMBL4837259, “Comprehensive Approach of 19F Nuclear Magnetic Resonance, Enzymatic, and In Silico Methods for Site-Specific Hit Selection and Validation of Fragment Molecules that Inhibit Methionine γ-Lyase Activity” (J Med Chem, 2021).

Calls of active or inactive are those of the source. No cut-off for these calls is given here.

Usually inhibition stands for the relative decrease from the control value, in per cent.

Assay [1] deals with Fusobacterium nucleatum. The assay is described as follows: Inhibition of Fusobacterium nucleatum ATCC 25586 recombinant MGL C113S mutant expressed in Escherichia coli BL21 (DE3) assessed as decrease in signal intensity by measuring recovery ratio by 19F NMR based competition assay relative to wild type. Also on record: scale not given: the % may be the effect or the level left.

For assay [2], the system named is Fusobacterium nucleatum. The assay is described as follows: Inhibition of Fusobacterium nucleatum ATCC 25586 recombinant MGL K238A mutant expressed in Escherichia coli BL21 (DE3) assessed as decrease in signal intensity by measuring recovery ratio by 19F NMR based competition assay relative to wild type. Also on record: concentration or dose not given beside the values.

Assay [3] concerns the target T1, L-methionine gamma-lyase (Fusobacterium nucleatum subsp. nucleatum) (UniProt Q8RDT4).
T1 sequence (whole entry): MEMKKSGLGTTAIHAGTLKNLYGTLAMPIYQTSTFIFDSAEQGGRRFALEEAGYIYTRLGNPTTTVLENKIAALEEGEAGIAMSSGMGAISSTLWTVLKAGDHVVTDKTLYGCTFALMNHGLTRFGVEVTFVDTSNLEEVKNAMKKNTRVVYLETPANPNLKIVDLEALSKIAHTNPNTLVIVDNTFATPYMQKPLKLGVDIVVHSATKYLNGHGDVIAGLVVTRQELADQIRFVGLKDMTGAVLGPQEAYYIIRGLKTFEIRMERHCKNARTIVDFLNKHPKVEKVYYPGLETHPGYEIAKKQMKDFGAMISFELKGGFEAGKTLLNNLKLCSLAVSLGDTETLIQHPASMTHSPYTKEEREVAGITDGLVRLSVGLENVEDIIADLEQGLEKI
As to the kind of experiment: Inhibition of Fusobacterium nucleatum ATCC 25586 recombinant wild type MGL expressed in Escherichia coli BL21 (DE3) assessed as formation of 2-ketobutyrate using L-methionine as substrate by enzymatic assay. Also on record: concentration or dose not given beside the values. The settings on record: concentration not given here.

Assay [4] concerns Fusobacterium nucleatum. The assay is described as follows: Inhibition of Fusobacterium nucleatum ATCC 25586 recombinant MGL R58K mutant expressed in Escherichia coli BL21 (DE3) assessed as decrease in signal intensity by measuring recovery ratio by 19F NMR based competition assay relative to wild type. Also on record: scale not given: the % may be the effect or the level left.

Assay [5] has as its system Fusobacterium nucleatum. The assay is described as follows: Inhibition of Fusobacterium nucleatum ATCC 25586 recombinant MGL R373A mutant expressed in Escherichia coli BL21 (DE3) assessed as decrease in signal intensity by measuring recovery ratio by 19F NMR based competition assay relative to wild type. More on the design: scale not given: the % may be the effect or the level left.

Assay [6] relates to Fusobacterium nucleatum. The assay is described as follows: Inhibition of Fusobacterium nucleatum ATCC 25586 recombinant MGL Y111F mutant expressed in Escherichia coli BL21 (DE3) assessed as decrease in signal intensity by measuring recovery ratio by 19F NMR based competition assay relative to wild type. Also on record: concentration or dose not given beside the values.
For assay [7], the target named is T1, L-methionine gamma-lyase (Fusobacterium nucleatum subsp. nucleatum). As to the kind of experiment: Inhibition of Fusobacterium nucleatum ATCC 25586 recombinant wild type MGL expressed in Escherichia coli BL21 (DE3) assessed as decrease in signal intensity by 19F NMR based competition assay relative to control. Also on record: concentration or dose not given beside the values.

The subject of assay [8] is Fusobacterium nucleatum. The assay is described as follows: Inhibition of Fusobacterium nucleatum ATCC 25586 recombinant MGL R58A mutant expressed in Escherichia coli BL21 (DE3) assessed as decrease in signal intensity by measuring recovery ratio by 19F NMR based competition assay relative to wild type. Also on record: scale not given: the % may be the effect or the level left.

The subject of assay [9] is Fusobacterium nucleatum. As to the kind of experiment: Inhibition of Fusobacterium nucleatum ATCC 25586 recombinant MGL Y56F mutant expressed in Escherichia coli BL21 (DE3) assessed as decrease in signal intensity by measuring recovery ratio by 19F NMR based competition assay relative to wild type. More on the design: concentration or dose not given beside the values.

Assay [10] relates to Fusobacterium nucleatum. The assay is described as follows: Inhibition of Fusobacterium nucleatum ATCC 25586 recombinant MGL R373K mutant expressed in Escherichia coli BL21 (DE3) assessed as decrease in signal intensity by measuring recovery ratio by 19F NMR based competition assay relative to wild type. More on the design: concentration or dose not given beside the values.

With `O=C(O)c1cc(C(F)(F)F)nn1Cc1ccccc1`, the result in the assay on Fusobacterium nucleatum [1] was inactive. Further, the outcome with Fusobacterium nucleatum [2] was Active. For the same compound, in assay [3], the inhibition came to 14.5%. For the same compound, the Activity in the assay with Fusobacterium nucleatum [4] was determined as 80%; in the assay with Fusobacterium nucleatum [5] it was 50%; in the assay with Fusobacterium nucleatum [6] it was 50%; in assay [7] it was 41%; with Fusobacterium nucleatum [8], 80%; with Fusobacterium nucleatum [9], 50%. Further, the Activity in the assay with Fusobacterium nucleatum [10] stood at 50%.

In the case of `O=C(O)c1cc(F)c(OCC2CC2)c(F)c1`, the outcome in the assay with Fusobacterium nucleatum [1], in the assay with Fusobacterium nucleatum [2] and in the assay with Fusobacterium nucleatum [10] was Active. In assay [3], the inhibition turned out to be 9.5%. Also, the Activity with Fusobacterium nucleatum [4] was 50%; in the assay with Fusobacterium nucleatum [5], 80%; in the assay on Fusobacterium nucleatum [6], 80%; in assay [7], 77%; in the assay on Fusobacterium nucleatum [8] it was 80%; in the assay with Fusobacterium nucleatum [9] it was 80%.

Regarding `O=C(O)c1cc(OC(F)(F)F)ccn1`, the outcome in the assay on Fusobacterium nucleatum [1], with Fusobacterium nucleatum [2] and in the assay on Fusobacterium nucleatum [10] was Active. The inhibition in [3] is -6.8%. In addition, the Activity is 80% in the assay on Fusobacterium nucleatum [4]; 80% in the assay with Fusobacterium nucleatum [5]; 50% in the assay with Fusobacterium nucleatum [6]; 4% in assay [7]; 80% in the assay on Fusobacterium nucleatum [8]; 80% in the assay with Fusobacterium nucleatum [9].

For `CC(C)(C)OC(=O)N1CCC(CN)(c2cccc(F)c2)CC1`, the result in the assay on Fusobacterium nucleatum [1], in the assay on Fusobacterium nucleatum [2], in the assay with Fusobacterium nucleatum [6], in the assay with Fusobacterium nucleatum [8] and with Fusobacterium nucleatum [10] was Active. For the same compound, in [3], the inhibition worked out at 16.1%. Also, the Activity with Fusobacterium nucleatum [4] stood at 80%; in assay [7], 65%; with Fusobacterium nucleatum [9], 50%. In the assay on Fusobacterium nucleatum [5], the outcome was inactive.

With `O=C(O)c1ccc(OCC(F)(F)F)cn1`, the Activity is 80% in the assay with Fusobacterium nucleatum [1]; 50% with Fusobacterium nucleatum [2]; 80% with Fusobacterium nucleatum [4]; 80% with Fusobacterium nucleatum [5]; 80% with Fusobacterium nucleatum [6]; 40% in [7]. Moreover, the Activity in the assay on Fusobacterium nucleatum [8] and in the assay with Fusobacterium nucleatum [9] was 80% each time. Also, the inhibition in assay [3] came to 15%. Further, the outcome with Fusobacterium nucleatum [10] was Active.

`O=C(O)c1cnn(-c2ccc(F)cc2)c1`: the outcome in the assay on Fusobacterium nucleatum [1] and with Fusobacterium nucleatum [10] was Active. Moreover, the Activity in the assay with Fusobacterium nucleatum [2] came to 50%; in the assay on Fusobacterium nucleatum [4], 50%; in the assay with Fusobacterium nucleatum [5], 80%; in the assay with Fusobacterium nucleatum [6], 80%; in assay [7], 69%; with Fusobacterium nucleatum [8] it was 80%. For the same compound, the Activity in the assay on Fusobacterium nucleatum [9] is 80%. Also, the inhibition in [3] was -0.6%.

As for `CC(C)(C)OC(=O)N1CCC(CN)(Cc2ccc(C(F)(F)F)cc2)CC1`, the Activity turned out to be 50% in the assay with Fusobacterium nucleatum [1]; 50% in the assay on Fusobacterium nucleatum [4]; 78% in [7]; 50% with Fusobacterium nucleatum [8]; 80% with Fusobacterium nucleatum [9]. Besides, the outcome in the assay on Fusobacterium nucleatum [2], in the assay on Fusobacterium nucleatum [5], with Fusobacterium nucleatum [6] and in the assay with Fusobacterium nucleatum [10] was Active. In addition, the inhibition in assay [3] is 78.3%.

Take `Cc1cccc2c(C(C(=O)O)C(F)(F)F)c[nH]c12` (stereo not given): the result in the assay on Fusobacterium nucleatum [1] was inactive. The Activity in the assay on Fusobacterium nucleatum [2] turned out to be 50%; with Fusobacterium nucleatum [4], 50%; in the assay on Fusobacterium nucleatum [5], 50%; in the assay on Fusobacterium nucleatum [6] it was 50%; in [7] it was 44%; in the assay with Fusobacterium nucleatum [8] it was 80%. The Activity in the assay with Fusobacterium nucleatum [9] turned out to be 80%. For the same compound, the inhibition in [3] was -5.3%. In addition, the result in the assay on Fusobacterium nucleatum [10] was Active.

As to `CC(C)(C)OC(=O)N1CCC(CN)(c2ccccc2F)CC1`, the Activity in the assay with Fusobacterium nucleatum [1] came out at 50%; in the assay with Fusobacterium nucleatum [4], 50%; in assay [7], 77%; with Fusobacterium nucleatum [8] it was 50%; in the assay on Fusobacterium nucleatum [9], 80%. Besides, the outcome with Fusobacterium nucleatum [2], with Fusobacterium nucleatum [6] and in the assay on Fusobacterium nucleatum [10] was Active. Also, the inhibition in assay [3] came out at 17.2%. Moreover, in the assay on Fusobacterium nucleatum [5], the outcome was inactive.

As to `O=C(O)c1cn(-c2ccc(C(F)(F)F)cc2)cn1`, the outcome in the assay on Fusobacterium nucleatum [1], in the assay on Fusobacterium nucleatum [2] and in the assay on Fusobacterium nucleatum [10] was Active. For the same compound, the inhibition in [3] turned out to be 45.3%. Moreover, the Activity in the assay with Fusobacterium nucleatum [4] was 80%; with Fusobacterium nucleatum [5] it was 80%; in the assay on Fusobacterium nucleatum [6], 50%; in assay [7], 87%; with Fusobacterium nucleatum [8] it was 50%; with Fusobacterium nucleatum [9] it was 80%.

Take `CC(C)(C)OC(=O)N1CCC(CN)(Cc2ccccc2F)CC1`: the Activity with Fusobacterium nucleatum [1] was found to be 80%; with Fusobacterium nucleatum [4], 50%; in [7], 63%; with Fusobacterium nucleatum [9] it was 80%. The result with Fusobacterium nucleatum [2], in the assay on Fusobacterium nucleatum [5] and with Fusobacterium nucleatum [6] was inactive. Also, the inhibition in assay [3] was 30.1%. The result with Fusobacterium nucleatum [8] and in the assay with Fusobacterium nucleatum [10] was Active.

For `CC(C)(C)OC(=O)N1CCC(CN)(Cc2ccc(F)cc2)CC1`, the Activity was determined as 50% in the assay on Fusobacterium nucleatum [1], 50% in the assay on Fusobacterium nucleatum [4], 70% in assay [7] and 80% in the assay with Fusobacterium nucleatum [9]. Also, the outcome with Fusobacterium nucleatum [2] and in the assay on Fusobacterium nucleatum [6] was inactive. Moreover, the inhibition in [3] was 27.7%. The result in the assay on Fusobacterium nucleatum [5], in the assay with Fusobacterium nucleatum [8] and in the assay on Fusobacterium nucleatum [10] was Active.

Take `CC(C)(C)OC(=O)N1CCC(C(=O)O)(c2ccc(C(F)(F)F)cc2)CC1`: the Activity worked out at 50% with Fusobacterium nucleatum [1]; 50% with Fusobacterium nucleatum [2]; 50% in the assay on Fusobacterium nucleatum [4]; 96% in assay [7]; 80% with Fusobacterium nucleatum [9]. The inhibition in assay [3] is 12.9%. The result in the assay with Fusobacterium nucleatum [5], with Fusobacterium nucleatum [6], in the assay with Fusobacterium nucleatum [8] and with Fusobacterium nucleatum [10] was Active.

Consider `O=C(O)c1cn(-c2ccc(F)cc2)cn1`, for which the Activity with Fusobacterium nucleatum [1] was 50%; with Fusobacterium nucleatum [4] it was 80%; with Fusobacterium nucleatum [5] it was 80%; in [7], 58%; in the assay on Fusobacterium nucleatum [8], 80%. Further, the result in the assay with Fusobacterium nucleatum [2], in the assay with Fusobacterium nucleatum [6], in the assay with Fusobacterium nucleatum [9] and with Fusobacterium nucleatum [10] was Active. Further, in [3], the inhibition was found to be 6.2%.

`CC(C)(CC(=O)O)c1ccc(F)cc1`: the result with Fusobacterium nucleatum [1] and in the assay with Fusobacterium nucleatum [10] was inactive. Besides, the Activity in the assay on Fusobacterium nucleatum [2] was determined as 50%; in the assay on Fusobacterium nucleatum [4], 80%; with Fusobacterium nucleatum [5], 80%; with Fusobacterium nucleatum [6], 80%; in [7], 57%; in the assay on Fusobacterium nucleatum [8], 80%. Further, in the assay with Fusobacterium nucleatum [9], the Activity came to 80%. For the same compound, in assay [3], the inhibition was -3.3%.
